Laboratory results: ChEMBL document CHEMBL5678818, “Discovery of potent SOS1 inhibitors that block RAS activation via disruption of the RAS-SOS1 interaction” (Proc Natl Acad Sci U S A, 2019)

Experiments:
[1] = target: T1, cGMP-dependent protein kinase 1 (Homo sapiens) (UniProt Q13976); assay: Inhibition of PRKG1 (unknown origin) assessed as residual activity at 1000 nM by KINOMEscan analysis relative to control
T1 sequence (whole entry): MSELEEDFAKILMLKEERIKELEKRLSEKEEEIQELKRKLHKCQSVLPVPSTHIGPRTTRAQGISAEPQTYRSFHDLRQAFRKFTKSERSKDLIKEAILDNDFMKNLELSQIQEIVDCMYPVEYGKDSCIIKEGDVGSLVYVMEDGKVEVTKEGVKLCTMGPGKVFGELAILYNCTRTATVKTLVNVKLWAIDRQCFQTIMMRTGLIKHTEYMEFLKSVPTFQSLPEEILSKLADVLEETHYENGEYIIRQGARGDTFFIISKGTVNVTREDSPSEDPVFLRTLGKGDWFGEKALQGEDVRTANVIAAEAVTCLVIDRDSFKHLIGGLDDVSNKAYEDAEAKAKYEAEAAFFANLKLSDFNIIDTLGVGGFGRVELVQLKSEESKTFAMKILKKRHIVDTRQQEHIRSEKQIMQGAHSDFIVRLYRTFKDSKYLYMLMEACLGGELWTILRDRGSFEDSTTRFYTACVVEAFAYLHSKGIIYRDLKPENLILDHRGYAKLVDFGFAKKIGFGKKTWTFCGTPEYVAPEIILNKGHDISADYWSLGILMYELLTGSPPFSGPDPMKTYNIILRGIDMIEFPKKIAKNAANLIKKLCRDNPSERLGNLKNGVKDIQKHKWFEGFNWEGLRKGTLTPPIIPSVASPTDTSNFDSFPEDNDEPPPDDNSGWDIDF

[2] = target: T2, Mitogen-activated protein kinase kinase kinase 6 (Homo sapiens) (UniProt O95382); assay: Inhibition of ASK2 (unknown origin) assessed as residual activity at 1000 nM by KINOMEscan analysis relative to control
T2 sequence (whole entry): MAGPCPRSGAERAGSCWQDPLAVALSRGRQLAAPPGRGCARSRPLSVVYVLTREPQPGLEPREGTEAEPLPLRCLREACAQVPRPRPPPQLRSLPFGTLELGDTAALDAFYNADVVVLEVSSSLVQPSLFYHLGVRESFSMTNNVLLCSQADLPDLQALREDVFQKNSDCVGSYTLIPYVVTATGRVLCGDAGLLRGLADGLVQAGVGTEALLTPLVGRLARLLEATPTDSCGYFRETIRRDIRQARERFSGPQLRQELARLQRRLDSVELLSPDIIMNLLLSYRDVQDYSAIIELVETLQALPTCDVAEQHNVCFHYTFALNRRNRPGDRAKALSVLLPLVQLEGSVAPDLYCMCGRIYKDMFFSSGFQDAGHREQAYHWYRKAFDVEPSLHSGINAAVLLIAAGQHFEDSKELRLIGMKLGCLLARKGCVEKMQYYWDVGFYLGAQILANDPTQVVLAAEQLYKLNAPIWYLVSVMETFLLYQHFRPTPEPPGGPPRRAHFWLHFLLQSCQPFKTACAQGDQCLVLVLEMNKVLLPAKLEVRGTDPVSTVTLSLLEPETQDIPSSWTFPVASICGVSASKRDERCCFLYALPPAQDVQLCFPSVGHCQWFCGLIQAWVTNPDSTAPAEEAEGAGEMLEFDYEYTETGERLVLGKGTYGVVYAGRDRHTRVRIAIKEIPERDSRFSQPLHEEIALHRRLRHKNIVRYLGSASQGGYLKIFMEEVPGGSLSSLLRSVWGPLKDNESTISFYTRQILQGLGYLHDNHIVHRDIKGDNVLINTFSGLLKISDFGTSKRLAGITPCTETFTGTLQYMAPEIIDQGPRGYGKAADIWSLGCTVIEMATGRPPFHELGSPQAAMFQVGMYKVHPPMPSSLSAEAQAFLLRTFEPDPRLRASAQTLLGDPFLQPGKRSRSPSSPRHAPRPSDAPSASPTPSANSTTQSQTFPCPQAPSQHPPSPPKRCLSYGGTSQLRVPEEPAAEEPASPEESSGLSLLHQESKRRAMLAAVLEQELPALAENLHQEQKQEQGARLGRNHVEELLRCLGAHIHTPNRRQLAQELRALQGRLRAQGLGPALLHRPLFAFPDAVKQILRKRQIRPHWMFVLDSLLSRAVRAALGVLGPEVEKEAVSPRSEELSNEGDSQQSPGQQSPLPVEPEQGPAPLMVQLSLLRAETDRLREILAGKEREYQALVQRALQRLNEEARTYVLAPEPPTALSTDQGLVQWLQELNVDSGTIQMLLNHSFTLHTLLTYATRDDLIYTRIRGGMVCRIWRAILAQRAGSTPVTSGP

[3] = target: T3, Serine/threonine-protein kinase tousled-like 1 (Homo sapiens) (UniProt Q9UKI8); assay: Inhibition of TLK1 (unknown origin) assessed as residual activity at 1000 nM by KINOMEscan analysis relative to control
T3 sequence (whole entry): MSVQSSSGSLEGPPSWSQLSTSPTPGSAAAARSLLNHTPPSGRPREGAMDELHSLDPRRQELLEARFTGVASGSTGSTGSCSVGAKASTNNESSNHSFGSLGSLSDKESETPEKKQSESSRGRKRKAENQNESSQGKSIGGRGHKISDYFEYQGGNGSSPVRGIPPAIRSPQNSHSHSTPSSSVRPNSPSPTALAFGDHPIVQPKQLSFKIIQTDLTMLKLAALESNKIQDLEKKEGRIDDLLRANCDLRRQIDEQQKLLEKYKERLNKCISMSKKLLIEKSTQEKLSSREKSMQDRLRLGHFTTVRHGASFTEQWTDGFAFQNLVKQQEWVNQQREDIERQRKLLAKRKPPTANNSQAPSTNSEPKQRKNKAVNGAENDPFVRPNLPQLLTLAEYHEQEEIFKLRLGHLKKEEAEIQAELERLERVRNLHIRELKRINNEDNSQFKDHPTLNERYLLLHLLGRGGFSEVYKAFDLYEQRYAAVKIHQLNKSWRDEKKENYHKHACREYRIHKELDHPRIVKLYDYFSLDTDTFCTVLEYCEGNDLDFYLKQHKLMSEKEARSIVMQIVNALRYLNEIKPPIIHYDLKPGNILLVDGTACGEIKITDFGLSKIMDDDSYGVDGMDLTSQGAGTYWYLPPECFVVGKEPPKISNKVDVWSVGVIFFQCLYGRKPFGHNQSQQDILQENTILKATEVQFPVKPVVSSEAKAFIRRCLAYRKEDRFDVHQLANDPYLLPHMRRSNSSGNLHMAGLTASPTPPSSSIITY

[4] = target: Ephrin type-A receptor 5 (Homo sapiens) (UniProt P54756); assay: Inhibition of EPHA5 (unknown origin) assessed as residual activity at 1000 nM by KINOMEscan analysis relative to control
[5] = target: cAMP-dependent protein kinase catalytic subunit beta (Homo sapiens) (UniProt P22694); assay: Inhibition of PKAC-beta (unknown origin) assessed as residual activity at 1000 nM by KINOMEscan analysis relative to control
[6] = target: Wee1-like protein kinase (Homo sapiens) (UniProt P30291); assay: Inhibition of WEE1 (unknown origin) assessed as residual activity at 1000 nM by KINOMEscan analysis relative to control
Chain of Wee1-like protein kinase (Homo sapiens) (P30291 whole entry, looked up): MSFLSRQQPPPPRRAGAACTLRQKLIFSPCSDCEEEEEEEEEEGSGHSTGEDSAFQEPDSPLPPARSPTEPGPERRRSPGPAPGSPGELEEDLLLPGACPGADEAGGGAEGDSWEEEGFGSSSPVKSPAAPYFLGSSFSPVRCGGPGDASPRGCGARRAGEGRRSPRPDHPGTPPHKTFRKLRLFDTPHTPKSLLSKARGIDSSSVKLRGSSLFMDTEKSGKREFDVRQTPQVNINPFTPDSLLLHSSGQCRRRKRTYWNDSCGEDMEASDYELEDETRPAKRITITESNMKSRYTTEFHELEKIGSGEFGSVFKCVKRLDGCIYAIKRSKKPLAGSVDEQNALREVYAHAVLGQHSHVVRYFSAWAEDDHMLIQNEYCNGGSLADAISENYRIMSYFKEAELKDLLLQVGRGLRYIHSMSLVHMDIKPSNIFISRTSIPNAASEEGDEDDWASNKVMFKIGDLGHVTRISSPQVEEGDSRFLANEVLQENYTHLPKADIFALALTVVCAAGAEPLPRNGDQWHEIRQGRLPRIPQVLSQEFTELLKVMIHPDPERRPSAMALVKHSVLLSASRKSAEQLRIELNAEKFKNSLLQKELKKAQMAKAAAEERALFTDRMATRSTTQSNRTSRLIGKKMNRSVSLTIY

Chain of Ephrin type-A receptor 5 (Homo sapiens) (P54756 whole entry): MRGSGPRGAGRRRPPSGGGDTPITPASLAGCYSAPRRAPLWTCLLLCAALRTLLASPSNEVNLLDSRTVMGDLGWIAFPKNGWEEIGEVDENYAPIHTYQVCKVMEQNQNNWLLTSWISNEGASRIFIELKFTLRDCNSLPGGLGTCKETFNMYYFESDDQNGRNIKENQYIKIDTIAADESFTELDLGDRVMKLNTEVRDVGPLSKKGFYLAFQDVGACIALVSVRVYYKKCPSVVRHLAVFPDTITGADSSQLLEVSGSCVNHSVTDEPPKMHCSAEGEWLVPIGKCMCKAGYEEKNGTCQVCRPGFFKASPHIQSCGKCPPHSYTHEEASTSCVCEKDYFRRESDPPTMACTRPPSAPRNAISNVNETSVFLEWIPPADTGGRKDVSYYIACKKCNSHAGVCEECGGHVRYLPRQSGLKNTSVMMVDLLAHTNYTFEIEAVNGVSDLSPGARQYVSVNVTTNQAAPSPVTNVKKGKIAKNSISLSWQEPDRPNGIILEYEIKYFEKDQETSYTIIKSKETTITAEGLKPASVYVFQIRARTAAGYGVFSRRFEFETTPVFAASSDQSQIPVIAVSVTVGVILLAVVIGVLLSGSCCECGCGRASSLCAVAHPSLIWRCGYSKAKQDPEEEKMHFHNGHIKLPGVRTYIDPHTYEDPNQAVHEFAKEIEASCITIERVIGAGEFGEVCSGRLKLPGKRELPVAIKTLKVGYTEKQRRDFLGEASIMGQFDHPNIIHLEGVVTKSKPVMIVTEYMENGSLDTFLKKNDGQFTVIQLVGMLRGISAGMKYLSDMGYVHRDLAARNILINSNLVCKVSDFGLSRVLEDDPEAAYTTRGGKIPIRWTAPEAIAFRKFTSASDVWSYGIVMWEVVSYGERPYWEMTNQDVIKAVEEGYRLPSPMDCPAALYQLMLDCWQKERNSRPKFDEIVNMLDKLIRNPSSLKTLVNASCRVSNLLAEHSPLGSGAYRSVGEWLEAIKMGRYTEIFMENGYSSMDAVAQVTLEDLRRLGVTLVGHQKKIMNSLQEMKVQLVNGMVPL

Row | Structure (SMILES) | Activity [1] [%] | Activity [2] [%] | Activity [3] [%] | Activity [4] [%] | Activity [5] [%] | Activity [6] [%]
1 | COc1cc2nc(C)nc(N[C@H](C)c3cccc(-c4cn[nH]c4)c3)c2cc1OC | 70 | 69 | 78 | 94 | 73 | 84
2 | COc1cc2ncnc(N[C@H](C)c3cccc4ccccc34)c2cc1OC | 100 | 67 | 100 | 100 | 100 | 100
